In EP3820512B1, “IMMUNOMODULATING COMPOSITIONS COMPRISING OLIGOSACCHARIDE DERIVATIVES” (priority 2018, dated 2020):
Entries after “also recorded” stand apart in the source; their conditions may differ.

Key:
TLR2 = molecular target: T1, TLR2 (Homo sapiens, UniProt O60603); assay: TLR2 activity in PMA-stimulated THP-1 monocyte cells, ELISA of cell lysate; type: cell-based; conditions: THP-1 cells
T1 construct: endogenous in cells; host or cells: THP-1 monocyte cells stimulated with PMA
Protocol: THP-1 monocyte cells (1×10^5) were stimulated with 200nM of PMA for 48h and treated with different concentrations of test compounds. The TLR2 activity was measured after 24 h from the cell lysate using ELISA.

[1] = system: THP-1 (human monocytic) cells; assay: Cytokine response (IL-1β, TNF-α, IL-10) of THP-1 cells treated with compounds; type: cell-based; conditions: 100-200 µM
Protocol: When THP-1 (human monocytic) cells were treated with 100-200 µM of compounds 8, 14, 17, 23, 29, and 32, they produced an increased IL-1β and TNF-α response, decreased anti-inflammatory cytokine IL-10 (FIG. 4).

TLR4 [2] = molecular target: T2, TLR4 (Homo sapiens, UniProt O00206); assay: TLR4 inhibitory and activating activity in THP-1 cells at low and high concentrations; type: cell-based; design: endogenous in cells; host or cells: THP-1 (human monocytic) cells
T2 sequence (O00206 24-839): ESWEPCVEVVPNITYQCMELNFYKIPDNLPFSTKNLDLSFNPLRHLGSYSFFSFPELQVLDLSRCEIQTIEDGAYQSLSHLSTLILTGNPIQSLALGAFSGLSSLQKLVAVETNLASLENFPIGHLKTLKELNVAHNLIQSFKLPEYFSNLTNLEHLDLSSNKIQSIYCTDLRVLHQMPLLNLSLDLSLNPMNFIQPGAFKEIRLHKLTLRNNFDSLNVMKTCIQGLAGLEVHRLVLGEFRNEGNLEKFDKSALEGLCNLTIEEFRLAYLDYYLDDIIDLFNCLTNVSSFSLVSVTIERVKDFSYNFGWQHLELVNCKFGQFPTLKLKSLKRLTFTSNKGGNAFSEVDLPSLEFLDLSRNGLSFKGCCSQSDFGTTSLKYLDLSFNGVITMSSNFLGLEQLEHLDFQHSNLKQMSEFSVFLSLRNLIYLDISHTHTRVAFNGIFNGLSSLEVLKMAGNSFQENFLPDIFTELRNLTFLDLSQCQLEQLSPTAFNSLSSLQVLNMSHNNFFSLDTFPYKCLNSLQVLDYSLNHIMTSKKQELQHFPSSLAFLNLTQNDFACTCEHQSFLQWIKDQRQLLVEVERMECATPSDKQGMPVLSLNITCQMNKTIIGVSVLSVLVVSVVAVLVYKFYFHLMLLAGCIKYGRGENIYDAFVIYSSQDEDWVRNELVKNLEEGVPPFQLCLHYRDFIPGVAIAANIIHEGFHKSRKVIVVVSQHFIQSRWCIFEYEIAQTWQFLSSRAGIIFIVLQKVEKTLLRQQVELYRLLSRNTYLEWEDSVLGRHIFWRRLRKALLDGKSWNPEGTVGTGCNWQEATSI
T2 sequence (Q9Y6Y9 17-160 partner limits assumed): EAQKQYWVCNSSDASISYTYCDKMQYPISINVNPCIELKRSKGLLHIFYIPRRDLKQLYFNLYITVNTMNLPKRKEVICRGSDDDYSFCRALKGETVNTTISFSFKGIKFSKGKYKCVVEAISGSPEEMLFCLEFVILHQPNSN

TLR1/2 = molecular target: T3, TLR1/2 (Homo sapiens, UniProt O60603); assay: TLR1/2 modulation: IL-6 ELISA in hPBMC with TLR1/2 ligand Pam3CSK4; type: cell-based
T3 construct: endogenous in cells; host or cells: hPBMC (human peripheral blood monocytes)
T3 sequence (O60603 21-784): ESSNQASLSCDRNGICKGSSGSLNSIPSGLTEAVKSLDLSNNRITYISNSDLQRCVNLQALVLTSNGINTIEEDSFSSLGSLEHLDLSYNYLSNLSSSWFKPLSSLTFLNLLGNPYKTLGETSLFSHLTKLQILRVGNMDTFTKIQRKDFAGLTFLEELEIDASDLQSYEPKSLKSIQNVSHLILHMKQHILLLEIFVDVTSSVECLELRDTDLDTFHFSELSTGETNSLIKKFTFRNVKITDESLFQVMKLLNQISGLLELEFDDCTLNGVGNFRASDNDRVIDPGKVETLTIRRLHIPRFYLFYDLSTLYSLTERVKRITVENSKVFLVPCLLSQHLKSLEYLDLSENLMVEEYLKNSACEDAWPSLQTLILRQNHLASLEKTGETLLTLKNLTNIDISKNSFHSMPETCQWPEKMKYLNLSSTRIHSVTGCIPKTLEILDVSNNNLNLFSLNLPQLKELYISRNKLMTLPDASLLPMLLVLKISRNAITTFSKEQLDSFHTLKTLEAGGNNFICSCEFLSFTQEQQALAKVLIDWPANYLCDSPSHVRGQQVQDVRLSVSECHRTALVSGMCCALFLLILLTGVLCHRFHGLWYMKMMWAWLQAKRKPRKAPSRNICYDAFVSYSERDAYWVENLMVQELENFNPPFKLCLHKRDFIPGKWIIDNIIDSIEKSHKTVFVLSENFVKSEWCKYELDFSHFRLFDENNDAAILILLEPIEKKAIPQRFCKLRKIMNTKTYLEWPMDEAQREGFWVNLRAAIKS
Description: Compound 8 modulates the TLR1/2 activities in a concentration dependent manner.

HUVECs = assay: Cytotoxicity in HUVECs, MTT cell proliferation kit; type: cell-based, human; conditions: 100 µM, 24h
Protocol: Selected TLR2/4 antagonist compounds 2, 6, 7, 8, 14, 17 and 32 were evaluated for cytotoxicity in HUVECs at 100 µM concentration. The cells were treated with compounds and incubated for 24h. Cell viability was assessed using MTT cell proliferation kit (Promega). All the compounds were not toxic to HUVECs (FIG. 15).

TLR6 = molecular target: T4, TLR6 (Homo sapiens, UniProt Q9Y2C9); assay: TLR6 stimulation: IL-6 ELISA in hPBMC with TLR6 ligand Pam2CSK4; type: cell-based; conditions: in combination with Pam2CSK4, hPBMC, 24h
T4 construct: endogenous in cells; host or cells: hPBMC (human peripheral blood monocytes)
T4 sequence (Q9Y2C9 32-796): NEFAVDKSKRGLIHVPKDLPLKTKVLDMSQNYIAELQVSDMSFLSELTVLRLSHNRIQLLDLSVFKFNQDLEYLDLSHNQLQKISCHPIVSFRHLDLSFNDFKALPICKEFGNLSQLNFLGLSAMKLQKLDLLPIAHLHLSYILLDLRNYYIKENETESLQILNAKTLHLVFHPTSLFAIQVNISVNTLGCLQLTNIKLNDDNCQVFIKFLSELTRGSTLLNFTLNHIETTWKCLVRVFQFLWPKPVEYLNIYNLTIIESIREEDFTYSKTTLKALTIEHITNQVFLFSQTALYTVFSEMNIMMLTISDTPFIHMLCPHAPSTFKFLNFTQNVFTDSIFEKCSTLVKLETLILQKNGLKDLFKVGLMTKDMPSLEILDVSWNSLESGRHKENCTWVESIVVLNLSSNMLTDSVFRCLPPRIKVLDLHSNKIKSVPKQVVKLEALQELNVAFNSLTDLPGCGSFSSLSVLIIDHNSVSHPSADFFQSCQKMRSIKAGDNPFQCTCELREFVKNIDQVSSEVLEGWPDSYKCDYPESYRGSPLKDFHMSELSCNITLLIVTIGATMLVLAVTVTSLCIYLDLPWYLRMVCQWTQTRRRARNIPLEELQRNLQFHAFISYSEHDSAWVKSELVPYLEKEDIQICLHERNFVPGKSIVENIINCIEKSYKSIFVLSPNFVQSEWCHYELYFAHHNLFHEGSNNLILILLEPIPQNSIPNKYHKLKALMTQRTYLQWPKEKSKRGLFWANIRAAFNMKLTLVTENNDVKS
T4 sequence (O60603 21-784 partner): as the sequence (O60603 21-784) above
Protocol: Compound 8 stimulates the TLR6 activities and upregulates the production of IL-6 cytokine in combination with TLR6 ligand Pam2CSK4 in hPBMC after 24h of treatment as detected by ELISA (FIG. 9).

[3] = system: P. aeruginosa (ATCC-10145 GFP) infected skin wounds; assay: Murine study of skin wound infection; type: in vivo, C57BL6 mice
Protocol: Five groups of C57BL/6 mice (8-10 weeks old, n = 4) were wounded on the dorsal surface. 25µl containing 10^6 CFU/mL P. aeruginosa in a PBS suspension were pipetted onto the wound and allowed to absorb for at least 3 min. […] Subsequently and for the next 13 days, infected wounds were treated each alternate day with colistin, or with test compounds.
Along with that less focal inflammation is observed in compound treated groups vs PA group.

TLR4 [4] = molecular target: T2, TLR4; assay: TLR4 modulation: IL-1β ELISA in hPBMC, alone or with TLR4 ligand LPS; type: cell-based; design: endogenous in cells
Description: Compound 8 modulates the TLR4 activities in a concentration dependent manner.

[5] = system: VEGF induced tube formation in HUVECs; assay: Anti-angiogenic activity, Tube Formation kit, VEGF induced; type: cell-based, human; conditions: VEGF 100ng/mL
Protocol: Selected TLR2/4 antagonist compounds 2, 6, 7, 8, 14, 17 and 32 were evaluated for anti-angiogenic activity using the Tube Formation kit (Cat#3470-096-K). VEGF (100ng/mL) was used as positive control. These compounds have potential applications in diseases associated with pathological angiogenesis such as solid tumor, […], diabetic retinopathy as well as AMD.

[6] = system: hyperoxia-induced lung injury in mice; assay: Hyperoxia induced ALI model; type: in vivo, C57BL/6 mice
Protocol: Male C57BL/6 mice (Jackson Laboratories,) 12-15 weeks old, 25 - 28 gms, housed up to 5 per cage were used.
Hyperoxia induced ALI model: The ARDS model consists of exposing adult mice in 100% oxygen for 48h followed by injecting with test compounds. Adult mice (N=5) were housed in plexi chamber with a constant and continuous supply of 100% oxygen for 48h. […] The mice were sacrificed after 48 h to harvest lung tissues and collect (BAL) fluid.

TLR7/8 = TLR7/8 modulation: cytokine ELISA in hPBMC, alone or with TLR7/8 ligand CL075; type: cell-based, human
Description: Compound 8 modulates the TLR7/8 activities in a concentration dependent manner.

hPBMC = assay: Cytotoxicity in hPBMC, MTT cell proliferation kit; type: cell-based, human; conditions: 0.1, 1.0, 10, 100 and 1000 µM, 24h
Protocol: The cells were treated with compounds and incubated for 24h. Cell viability was assessed using MTT cell proliferation kit (Promega).

T1 sequence (O60603 21-784): as above

Compound: CC(=O)N[C@H]1[C@H](Oc2ccc([N+](=O)[O-])cc2)O[C@H](CO)[C@@H](O)[C@@H]1O [Compound 8, p-Nitrophenyl 2-acetamido-2-deoxy-β-D-glucopyranoside]
- % inhibition over control TLR2 (TLR2; Concentration 1-10 µM): + (+ means that the % of inhibition or activation is in the range of 15-25%)
- % inhibition over control TLR2 (TLR2; Concentration 75-100 µM): ++ (++ means that the % of inhibition or activation is in the range of 25-75%)
- IL-1β response [1]: increased
- TNF-α response [1]: increased
- anti-inflammatory cytokine IL-10 [1]: decreased
- % inhibition over control TLR4 (TLR4 [2]; Concentration 1-10 µM, THP-1 cells): +++ (+++ means that the % of inhibition or activation is in the range of 75-95%)
- % activation over control TLR4 (TLR4 [2]; Concentration 75-100 µM, THP-1 cells): ++ (++ means that the % of inhibition or activation is in the range of 25-75%)
- TLR4 modulatory activity (TLR4 [2]; summary in words): concentration dependent TLR4 modulatory activity
- IL-6 protein level (TLR1/2; 0.1 µM to <1 µM, in combination with Pam3CSK4, hPBMC, 24h, ELISA): downregulate
- production of IL-6 (TLR1/2; 1.0, 10 and 100 µM, in combination with CL075, hPBMC): significantly stimulated
- cytotoxicity in HUVECs (cell viability) (HUVECs): not toxic
- production of IL-6 cytokine (TLR6): upregulates
- CFU in tissues / bacterial counts ([3]; 13 days post infection, vs untreated control): decreased; also recorded: statistically significant reduction
- Re-epithelialization and granulation tissue ([3]; H&E histology, day 13 post-injury, vs controls, p=0.050 (Colistin, compound 1), p=0.073 (compound 8)): borderline non-significant
- closure of P. aeruginosa infected skin wounds ([3]; topical, each alternate day, day 13, compounds 100µM / 100µg /ml, Colistin 4µg/ml): effectively closed; also recorded: complete closure
- IL-1β protein level (TLR4 [4]; 0.1 µM to <1 µM, alone or in combination with LPS, 24h, ELISA): downregulate
- production of IL-1β (TLR4 [4]; 1.0 µM, alone and in combination with LPS): significantly stimulated
- VEGF induced tube formation [5]: significantly decreased
- protection against hyperoxia induced lung injury ([6]; IP 10 mg/kg, two doses, 100% oxygen 48h): significant protection
- hyperoxia-induced lung inflammation ([6]; IP injection): ameliorated
- IL-10 protein level (TLR7/8; 0.1 µM to <1 µM, alone or in combination with CL075, hPBMC, 24h, ELISA): downregulate
- production of IL-1β (TLR7/8; 1.0 µM, alone and in combination with CL075, hPBMC): significantly stimulated
- cytotoxicity in hPBMC (cell viability) (hPBMC): not toxic
